Measurements from ChEMBL document CHEMBL1201862, “PubChem BioAssay data set” (2004).
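Grown in 96-well plates, cells were treated for 48 hours with each compound at five concentrations. Insufficient inhibition: endpoint recorded as highest concentration tested. The concentration for 50% growth inhibition is given as GI50.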 Calls of active or inactive are those of the source. No stated cut-off is given here; in the data, active = GI50 up to about 1.1 µM and inactive = higher.

How the values were obtained:
Assay in all cases: growth of human tumour cells (NCI), 48 h
786-0 = tested on: 786-0
MCF7 = tested on: MCF7
RXF 393 = tested on: RXF 393
HL-60 = tested on: HL-60
Hs-578T = tested on: Hs-578T
A549 = tested on: A549
SK-MEL-28 = tested on: SK-MEL-28
M14 = tested on: M14
SNB-75 = tested on: SNB-75
SNB-19 = tested on: SNB-19
PC-3 = tested on: PC-3
RPMI-8226 = tested on: RPMI-8226
COLO 205 = tested on: COLO 205
UACC-257 = tested on: UACC-257
NCI-H23 = tested on: NCI-H23
BT-549 = tested on: BT-549
SF-268 = tested on: SF-268
U-251 = tested on: U-251
HT-29 = tested on: HT-29
UO-31 = tested on: UO-31
DU-145 = tested on: DU-145
SW-620 = tested on: SW-620
EKVX = tested on: EKVX
CCRF-CEM = tested on: CCRF-CEM
HCC 2998 = tested on: HCC 2998
HCT-116 = tested on: HCT-116
SN12C = tested on: SN12C
SR = tested on: SR
MDA-MB-435 = tested on: MDA-MB-435
SF-295 = tested on: SF-295
OVCAR-3 = tested on: OVCAR-3
SK-MEL-5 = tested on: SK-MEL-5
NCI/ADR-RES = tested on: NCI/ADR-RES
UACC-62 = tested on: UACC-62
HCT-15 = tested on: HCT-15
ACHN = tested on: ACHN
OVCAR-8 = tested on: OVCAR-8
Malme-3M = tested on: Malme-3M
MOLT-4 = tested on: MOLT-4
IGROV-1 = tested on: IGROV-1
MDA-N = tested on: MDA-N
LOX IMVI = tested on: LOX IMVI
MDA-MB-231 = tested on: MDA-MB-231
NCI-H522 = tested on: NCI-H522
K562 = tested on: K562
NCI-H460 = tested on: NCI-H460
KM12 = tested on: KM12
SF-539 = tested on: SF-539
OVCAR-5 = tested on: OVCAR-5
HOP-62 = tested on: HOP-62
NCI-H226 = tested on: NCI-H226
SK-MEL-2 = tested on: SK-MEL-2
TK-10 = tested on: TK-10
CAKI-1 = tested on: CAKI-1
HOP-92 = tested on: HOP-92
OVCAR-4 = tested on: OVCAR-4
SK-OV-3 = tested on: SK-OV-3
T47D = tested on: T47D
A498 = tested on: A498

CN(C(=O)C1(C(=O)C=[N+]=[N-])CC1)c1ccccc1
GI50 (786-0): > 100 µM (inactive) | GI50 (MCF7): > 100 µM (inactive) | GI50 (RXF 393): > 100 µM (inactive) | GI50 (HL-60): > 100 µM (inactive) | GI50 (Hs-578T): > 100 µM (inactive) | GI50 (A549): > 100 µM (inactive) | GI50 (SK-MEL-28): > 100 µM (inactive) | GI50 (M14): > 100 µM (inactive) | GI50 (SNB-75): > 100 µM (inactive) | GI50 (SNB-19): > 100 µM (inactive) | GI50 (PC-3): > 100 µM (inactive) | GI50 (RPMI-8226): > 100 µM (inactive) | GI50 (COLO 205): > 100 µM (inactive) | GI50 (UACC-257): > 100 µM (inactive) | GI50 (NCI-H23): > 100 µM (inactive) | GI50 (BT-549): > 100 µM (inactive) | GI50 (SF-268): > 100 µM (inactive) | GI50 (U-251): > 100 µM (inactive) | GI50 (HT-29): > 100 µM (inactive) | GI50 (UO-31): > 100 µM (inactive) | GI50 (DU-145): > 100 µM (inactive) | GI50 (SW-620): > 100 µM (inactive) | GI50 (EKVX): > 100 µM (inactive) | GI50 (CCRF-CEM): > 100 µM (inactive) | GI50 (HCC 2998): > 100 µM (inactive) | GI50 (HCT-116): > 100 µM (inactive) | GI50 (SN12C): > 100 µM (inactive) | GI50 (SR): > 100 µM (inactive) | GI50 (MDA-MB-435): > 100 µM (inactive) | GI50 (SF-295): > 100 µM (inactive) | GI50 (OVCAR-3): > 100 µM (inactive) | GI50 (SK-MEL-5): > 100 µM (inactive) | GI50 (NCI/ADR-RES): > 100 µM (inactive) | GI50 (UACC-62): > 100 µM (inactive) | GI50 (HCT-15): > 100 µM | GI50 (ACHN): > 100 µM (inactive) | GI50 (OVCAR-8): > 100 µM (inactive) | GI50 (Malme-3M): > 100 µM (inactive) | GI50 (MOLT-4): > 100 µM (inactive) | GI50 (IGROV-1): > 100 µM (inactive) | GI50 (MDA-N): > 100 µM (inactive) | GI50 (LOX IMVI): > 100 µM (inactive) | GI50 (MDA-MB-231): > 100 µM (inactive) | GI50 (NCI-H522): 83.6 µM (inactive) | GI50 (K562): > 100 µM (inactive) | GI50 (NCI-H460): > 100 µM (inactive) | GI50 (KM12): > 100 µM (inactive) | GI50 (SF-539): > 100 µM (inactive) | GI50 (OVCAR-5): > 100 µM (inactive) | GI50 (HOP-62): > 100 µM (inactive) | GI50 (NCI-H226): > 100 µM (inactive) | GI50 (SK-MEL-2): > 100 µM (inactive) | GI50 (TK-10): > 100 µM (inactive)

NN/C(=N\S(=O)(=O)c1ccc(-c2ccccn2)s1)Nc1ccc(Cl)cc1
GI50 (786-0): 29.2 µM (inactive) | GI50 (MCF7): > 100 µM (inactive) | GI50 (RXF 393): 30.5 µM (inactive) | GI50 (HL-60): > 100 µM (inactive) | GI50 (A549): 59 µM (inactive) | GI50 (CAKI-1): 58.6 µM (inactive) | GI50 (SK-MEL-28): > 100 µM (inactive) | GI50 (M14): > 100 µM (inactive) | GI50 (HOP-92): 68.5 µM (inactive) | GI50 (SNB-75): 25.6 µM (inactive) | GI50 (SNB-19): 42.1 µM (inactive) | GI50 (PC-3): > 100 µM (inactive) | GI50 (RPMI-8226): > 100 µM (inactive) | GI50 (COLO 205): > 100 µM (inactive) | GI50 (UACC-257): > 100 µM (inactive) | GI50 (NCI-H23): > 100 µM (inactive) | GI50 (BT-549): > 100 µM (inactive) | GI50 (SF-268): 22.1 µM (inactive) | GI50 (U-251): 44.2 µM (inactive) | GI50 (OVCAR-4): 85.9 µM (inactive) | GI50 (HT-29): > 100 µM (inactive) | GI50 (UO-31): 43.9 µM (inactive) | GI50 (DU-145): > 100 µM (inactive) | GI50 (SW-620): > 100 µM (inactive) | GI50 (EKVX): 53.6 µM (inactive) | GI50 (SK-OV-3): 88.9 µM (inactive) | GI50 (HCT-116): > 100 µM (inactive) | GI50 (SN12C): > 100 µM (inactive) | GI50 (SF-295): 52.5 µM (inactive) | GI50 (OVCAR-3): 73.8 µM (inactive) | GI50 (SK-MEL-5): > 100 µM (inactive) | GI50 (NCI/ADR-RES): > 100 µM (inactive) | GI50 (UACC-62): > 100 µM (inactive) | GI50 (HCT-15): > 100 µM | GI50 (ACHN): > 100 µM (inactive) | GI50 (OVCAR-8): 83.6 µM (inactive) | GI50 (T47D): 38.1 µM (inactive) | GI50 (A498): > 100 µM (inactive) | GI50 (MOLT-4): 32.7 µM (inactive) | GI50 (IGROV-1): > 100 µM (inactive) | GI50 (MDA-N): > 100 µM (inactive) | GI50 (LOX IMVI): > 100 µM (inactive) | GI50 (MDA-MB-231): > 100 µM (inactive) | GI50 (NCI-H522): 0.265 µM (active) | GI50 (K562): > 100 µM (inactive) | GI50 (NCI-H460): > 100 µM (inactive) | GI50 (KM12): > 100 µM (inactive) | GI50 (SF-539): 38.9 µM (inactive) | GI50 (OVCAR-5): > 100 µM (inactive) | GI50 (HOP-62): 38.9 µM (inactive) | GI50 (NCI-H226): 75.2 µM (inactive) | GI50 (SK-MEL-2): > 100 µM (inactive) | GI50 (TK-10): > 100 µM (inactive)

CC(=O)NC(C)(C)C1CCC(C)=C(c2ccccc2)C1 (stereo not given)
GI50 (786-0): > 100 µM (inactive) | GI50 (MCF7): > 100 µM (inactive) | GI50 (HL-60): 31.1 µM (inactive) | GI50 (A549): > 100 µM (inactive) | GI50 (SK-MEL-28): > 100 µM (inactive) | GI50 (M14): > 100 µM (inactive) | GI50 (HOP-92): 19.5 µM (inactive) | GI50 (SNB-75): 53.6 µM (inactive) | GI50 (SNB-19): > 100 µM (inactive) | GI50 (PC-3): > 100 µM (inactive) | GI50 (COLO 205): > 100 µM (inactive) | GI50 (UACC-257): > 100 µM (inactive) | GI50 (NCI-H23): > 100 µM (inactive) | GI50 (BT-549): > 100 µM (inactive) | GI50 (SF-268): > 100 µM (inactive) | GI50 (U-251): 80 µM (inactive) | GI50 (OVCAR-4): > 100 µM (inactive) | GI50 (HT-29): > 100 µM (inactive) | GI50 (UO-31): > 100 µM (inactive) | GI50 (DU-145): > 100 µM (inactive) | GI50 (SW-620): > 100 µM (inactive) | GI50 (EKVX): > 100 µM (inactive) | GI50 (CCRF-CEM): 96.8 µM (inactive) | GI50 (HCC 2998): > 100 µM (inactive) | GI50 (SK-OV-3): > 100 µM (inactive) | GI50 (HCT-116): 87.5 µM (inactive) | GI50 (SN12C): > 100 µM (inactive) | GI50 (SR): > 100 µM (inactive) | GI50 (MDA-MB-435): > 100 µM (inactive) | GI50 (SF-295): > 100 µM (inactive) | GI50 (OVCAR-3): > 100 µM (inactive) | GI50 (SK-MEL-5): > 100 µM (inactive) | GI50 (UACC-62): > 100 µM (inactive) | GI50 (HCT-15): 74 µM | GI50 (OVCAR-8): > 100 µM (inactive) | GI50 (T47D): > 100 µM (inactive) | GI50 (MOLT-4): > 100 µM (inactive) | GI50 (IGROV-1): > 100 µM (inactive) | GI50 (MDA-N): > 100 µM (inactive) | GI50 (LOX IMVI): > 100 µM (inactive) | GI50 (MDA-MB-231): 55.8 µM (inactive) | GI50 (NCI-H522): 88.7 µM (inactive) | GI50 (K562): 42 µM (inactive) | GI50 (NCI-H460): > 100 µM (inactive) | GI50 (KM12): > 100 µM (inactive) | GI50 (SF-539): > 100 µM (inactive) | GI50 (OVCAR-5): > 100 µM (inactive) | GI50 (HOP-62): > 100 µM (inactive) | GI50 (TK-10): > 100 µM (inactive)
